target: T1, human IDO1 (Homo sapiens, UniProt P14902); assay: HEK Human IDO-1 inhibition assay (kynurenine, Ehrlich reagent, absorbance 490 nm); format: cell-based; conditions: human IDO1/HEK293 cells, 20 hours incubation; read-out: HEK Human IDO-1 Bio Activity (IDO IC50)
T1 construct: expressed in transfected cells
Procedure: HEK293 cells were transfected with a pCDNA-based mammalian expression vector harboring human IDO1 cDNA (NM 002164.2) by electroporation. They were cultured in medium (DMEM with 10% FBS) containing 1 mg/ml G418 for two weeks. Clones of HEK293 cells that stably expressed human IDO1 protein were selected and expanded for IDO inhibition assay.
The human IDO1/HEK293 cells were seeded at 10,000 cells per 50 μL per well with RPMI/phenol red free media contains 10% FBS in a 384-well black wall clear bottom tissue culture plate (Matrix Technologies LLC) 100 nL of certain concentration of compound was then added to each well using ECHO liquid handling systems. The cells were incubated for 20 hours in 37° C. incubator with 5% CO2.
The compound treatments were stopped by adding trichloroacetic acid (Sigma-Aldrich) to a final concentration at 0.2%. The cell plate was further incubated at 50° C. for 30 minute. The equal volume supernatant (20 μL) and 0.2% (w/v) Ehrlich reagent (4-dimethylaminobenzaldehyde, Sigma-Aldrich) in glacial acetic acid were mixed in a new clear bottom 384-well plate. This plate was then incubated at room temperature for 30 minute. The absorbance at 490 nm was measured on Envision plate reader.
Compound IC50 values were calculated using the counts of 500 nM of a reference standard treatment as one hundred percent inhibition, and counts of no compound but DMSO treatment as zero percent inhibition.

T1 sequence (P14902 whole entry): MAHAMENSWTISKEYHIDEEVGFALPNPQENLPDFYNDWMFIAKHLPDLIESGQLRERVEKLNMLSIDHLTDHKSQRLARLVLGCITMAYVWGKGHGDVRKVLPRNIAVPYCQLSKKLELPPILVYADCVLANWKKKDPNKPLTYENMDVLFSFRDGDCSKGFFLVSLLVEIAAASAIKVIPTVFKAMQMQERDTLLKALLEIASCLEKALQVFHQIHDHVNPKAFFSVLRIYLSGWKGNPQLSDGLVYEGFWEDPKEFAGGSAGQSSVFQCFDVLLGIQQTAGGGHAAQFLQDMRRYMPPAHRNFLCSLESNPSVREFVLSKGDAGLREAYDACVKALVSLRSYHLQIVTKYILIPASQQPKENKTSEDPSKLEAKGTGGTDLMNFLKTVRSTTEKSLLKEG

Structure (SMILES)	IC50
Cc1ccc(CC(=O)NCC2CCN(c3ccnc4ccc(F)cc34)CC2)cc1 [Example 1, N-((1-(6-Fluoroquinolin-4-yl)piperidin-4-yl)methyl)-2-(p-tolyl)acetamide]	< 100 nM
O=C(Cc1ccc(F)cc1)NCC1CCN(c2ccnc3ccc(F)cc23)CC1 [Example 2, 2-(4-Fluorophenyl)-N-((1-(6-fluoroquinolin-4-yl)piperidin-4-yl)methyl)acetamide]	< 100 nM
O=C(Cc1ccccc1F)NCC1CCN(c2ccnc3ccc(F)cc23)CC1 [Example 3, 2-(2-Fluorophenyl)-N-((1-(6-fluoroquinolin-4-yl)piperidin-4-yl)methyl)acetamide]	< 1000 nM
C[C@@H](CNC(=O)c1ccc(Cl)cc1)[C@H]1CC[C@@H](c2ccnc3ccc(F)cc32)CC1 [Example 4, 4-chloro-N—((R)-2-((cis)-4-(6-fluoroquinolin-4-yl)cyclohexyl)propyl)benzamide]	< 1000 nM
C[C@@H](NC(=O)Cc1ccc(Cl)cc1)[C@H]1CC[C@@H](c2ccnc3ccc(F)cc32)CC1 [Example 5, 2-(4-chlorophenyl)-N-((R)-1-((1s,4S)-4-(6-fluoroquinolin-4-yl)cyclohexyl)ethyl)acetamide]	< 1000 nM
C[C@@H](NC(=O)Cc1ccccc1Cl)[C@H]1CC[C@@H](c2ccnc3ccc(F)cc32)CC1 [Example 6, 2-(2-chlorophenyl)-N-((R)-1-((1s,4S)-4-(6-fluoroquinolin-4-yl)cyclohexyl)ethyl)acetamide]	< 1000 nM
C[C@@H](NC(=O)Cc1cccc(Cl)c1)[C@H]1CC[C@@H](c2ccnc3ccc(F)cc32)CC1 [Example 7, 2-(3-chlorophenyl)-N-((R)-1-((1s,4S)-4-(6-fluoroquinolin-4-yl)cyclohexyl)ethyl)acetamide]	< 1000 nM
C[C@H](C(=O)N[C@H](C)[C@H]1CC[C@@H](c2ccnc3ccc(F)cc32)CC1)c1ccccc1 [Example 8, (S)-N-((R)-1-((1s,4S)-4-(6-fluoroquinolin-4-yl)cyclohexyl)ethyl)-2-phenylpropanamide]	< 1000 nM
C[C@@H](C(=O)N[C@H](C)[C@H]1CC[C@@H](c2ccnc3ccc(F)cc32)CC1)c1ccccc1 [Example 9, (R)-N-((R)-1-((1s,4S)-4-(6-fluoroquinolin-4-yl)cyclohexyl)ethyl)-2-phenylpropanamide]	< 1000 nM
COc1ccc(CC(=O)N[C@H](C)[C@H]2CC[C@@H](c3ccnc4ccc(F)cc43)CC2)cc1 [Example 10, N-((R)-1-((1s,4S)-4-(6-fluoroquinolin-4-yl)cyclohexyl)ethyl)-2-(4-methoxyphenyl)acetamide]	< 1000 nM

Other lines, results leading:

IC50	Structure (SMILES)
< 100 nM	CO[C@@H](C(=O)N[C@H](C)[C@H]1CC[C@@H](c2ccnc3ccc(F)cc32)CC1)c1ccccc1 [Example 11]
< 1000 nM	C[C@@H](NC(=O)Cc1ccccc1F)[C@H]1CC[C@@H](c2ccnc3ccc(F)cc32)CC1 [Example 12, 2-(2-fluorophenyl)-N-((R)-1-((1s,4S)-4-(6-fluoroquinolin-4-yl)cyclohexyl)ethyl)acetamide]
< 100 nM	C[C@@H](NC(=O)C1(c2ccc(Cl)cc2)CCC1)[C@H]1CC[C@@H](c2ccnc3ccc(F)cc32)CC1 [Example 13, 1-(4-chlorophenyl)-N-((R)-1-((1s,4S)-4-(6-fluoroquinolin-4-yl)cyclohexyl)ethyl)-cyclobutanecarboxamide]
< 100 nM	C[C@@H](NC(=O)C12CCC(Cl)(CC1)CC2)[C@H]1CC[C@@H](c2ccnc3ccc(F)cc32)CC1 [Example 14, 4-chloro-N—((R)-1-((cis)-4-(6-fluoroquinolin-4-yl)cyclohexyl)ethyl)bicyclo [2.2.2]octane-1-carboxamide]
< 100 nM	C[C@@H](NC(=O)C1CCCCC1)[C@H]1CC[C@@H](c2ccnc3ccc(F)cc32)CC1 [Example 15, N-((R)-1-((1s,4S)-4-(6-fluoroquinolin-4-yl)cyclohexyl)ethyl)-cyclohexanecarboxamide]
< 1000 nM	C[C@@H](NC(=O)C1CC1)[C@H]1CC[C@@H](c2ccnc3ccc(F)cc32)CC1 [Example 16, N-((R)-1-((1s,4S)-4-(6-fluoroquinolin-4-yl)cyclohexyl)ethyl)-cyclopropanecarboxamide]
< 1000 nM	C[C@@H](NC(=O)C1CC(F)(F)C1)[C@H]1CC[C@@H](c2ccnc3ccc(F)cc32)CC1 [Example 17, 3,3-difluoro-N-((R)-1-((1s,4S)-4-(6-fluoroquinolin-4-yl)cyclohexyl)ethyl)-cyclobutanecarboxamide]
< 1000 nM	C[C@@H](NC(=O)[C@H]1C[C@H](F)C1)[C@H]1CC[C@@H](c2ccnc3ccc(F)cc32)CC1 [Example 18, (1r,3R)-3-fluoro-N-((R)-1-((1s,4S)-4-(6-fluoroquinolin-4-yl)cyclohexyl)ethyl)-cyclobutanecarboxamide]
< 1000 nM	C[C@@H](NC(=O)[C@H]1C[C@@H](F)C1)[C@H]1CC[C@@H](c2ccnc3ccc(F)cc32)CC1 [Example 19, (1s,3S)-3-fluoro-N-((R)-1-((1s,4S)-4-(6-fluoroquinolin-4-yl)cyclohexyl)ethyl)-cyclobutanecarboxamide]
< 1000 nM	C[C@@H](NC(=O)C1CCC1)[C@H]1CC[C@@H](c2ccnc3ccc(F)cc32)CC1 [Example 20, N-((R)-1-((1s,4S)-4-(6-fluoroquinolin-4-yl)cyclohexyl)ethyl)-cyclobutanecarboxamide]
< 1000 nM	C[C@@H](NC(=O)[C@H]1CC[C@@H](O)CC1)[C@H]1CC[C@@H](c2ccnc3ccc(F)cc32)CC1 [Example 21, (1s,4S)-N-((R)-1-((1s,4S)-4-(6-fluoroquinolin-4-yl)cyclohexyl)ethyl)-4-hydroxycxclohexanecarboxamide]
< 1000 nM	C[C@@H](NC(=O)[C@H]1CC[C@H](O)CC1)[C@H]1CC[C@@H](c2ccnc3ccc(F)cc32)CC1 [Example 22, (1r,4R)-N-((R)-1-((1s,4S)-4-(6-fluoroquinolin-4-y1)cyclohexyl)ethyl)-4-hydroxycxclohexanecarboxamide]
